ChEMBL document CHEMBL5465560, “Selectivity Literature for EUbOPEN Chemogenomic Library” (2024)

How the values were obtained:
[1] = target: T1, Myotonin-protein kinase (Homo sapiens) (UniProt Q09013); assay: Selectivity interaction (KinomeScan (DiscoverX)) EUB0000666a DMPK; conditions: at 10 µM
T1 sequence (whole entry): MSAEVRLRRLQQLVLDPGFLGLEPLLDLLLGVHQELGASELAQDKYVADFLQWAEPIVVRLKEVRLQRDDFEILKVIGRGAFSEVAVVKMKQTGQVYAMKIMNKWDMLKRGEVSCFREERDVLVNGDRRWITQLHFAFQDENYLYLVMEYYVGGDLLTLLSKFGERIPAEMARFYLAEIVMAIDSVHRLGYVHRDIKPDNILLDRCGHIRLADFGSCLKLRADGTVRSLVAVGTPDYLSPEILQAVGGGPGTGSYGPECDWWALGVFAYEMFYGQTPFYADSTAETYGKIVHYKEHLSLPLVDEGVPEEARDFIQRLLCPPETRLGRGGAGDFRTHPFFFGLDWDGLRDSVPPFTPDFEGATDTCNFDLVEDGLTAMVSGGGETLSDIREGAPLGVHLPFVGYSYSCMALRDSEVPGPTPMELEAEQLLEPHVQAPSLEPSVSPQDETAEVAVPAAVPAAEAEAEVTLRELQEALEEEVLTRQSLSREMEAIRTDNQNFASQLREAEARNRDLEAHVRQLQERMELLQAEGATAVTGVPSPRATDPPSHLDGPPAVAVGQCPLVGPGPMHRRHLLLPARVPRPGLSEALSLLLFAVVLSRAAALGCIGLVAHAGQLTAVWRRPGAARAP

[2] = target: Casein kinase I isoform gamma-2 (Homo sapiens) (UniProt P78368); assay: Selectivity interaction (Kinase panel (Invitrogen)) EUB0000639a CSNK1G2; conditions: at 200 nM
[3] = target: Microtubule-associated serine/threonine-protein kinase 3 (Homo sapiens) (UniProt O60307); assay: Selectivity interaction (ActivX KiNativ screen (ex vivo kinase selectivity in human PBMCs)) EUB0001619a MAST3; format: cell-based; conditions: PBMC, at 1 µM
[4] = target: T2, G protein-coupled receptor kinase 3 (Homo sapiens) (UniProt P35626); assay: Selectivity interaction (KinomeScan (DiscoverX)) EUB0000695a ADRBK2; conditions: at 100 nM
T2 sequence (whole entry): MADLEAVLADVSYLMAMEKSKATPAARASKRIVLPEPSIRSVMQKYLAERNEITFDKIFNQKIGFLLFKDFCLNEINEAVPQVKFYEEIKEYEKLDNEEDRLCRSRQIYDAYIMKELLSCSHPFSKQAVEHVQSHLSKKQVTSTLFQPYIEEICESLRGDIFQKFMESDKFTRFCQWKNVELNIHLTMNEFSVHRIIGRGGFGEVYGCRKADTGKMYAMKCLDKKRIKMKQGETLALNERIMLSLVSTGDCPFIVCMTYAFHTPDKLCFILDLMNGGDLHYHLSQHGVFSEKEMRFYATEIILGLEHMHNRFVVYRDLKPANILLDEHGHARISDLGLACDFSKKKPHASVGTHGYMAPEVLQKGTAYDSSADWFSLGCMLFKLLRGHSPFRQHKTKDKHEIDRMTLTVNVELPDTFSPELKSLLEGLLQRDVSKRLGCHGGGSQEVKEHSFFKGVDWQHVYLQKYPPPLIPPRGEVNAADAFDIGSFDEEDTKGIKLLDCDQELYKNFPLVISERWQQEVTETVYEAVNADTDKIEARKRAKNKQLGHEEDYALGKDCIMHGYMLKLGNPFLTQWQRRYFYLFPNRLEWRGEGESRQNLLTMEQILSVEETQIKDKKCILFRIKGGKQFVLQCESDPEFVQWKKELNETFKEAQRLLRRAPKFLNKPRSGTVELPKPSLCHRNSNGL

[5] = target: T3, Activin receptor type-1B (Homo sapiens) (UniProt P36896); assay: Selectivity interaction (SelectScreen profiling (Invitrogen)) EUB0000607a ACVR1B; conditions: at 2 µM
T3 sequence (whole entry): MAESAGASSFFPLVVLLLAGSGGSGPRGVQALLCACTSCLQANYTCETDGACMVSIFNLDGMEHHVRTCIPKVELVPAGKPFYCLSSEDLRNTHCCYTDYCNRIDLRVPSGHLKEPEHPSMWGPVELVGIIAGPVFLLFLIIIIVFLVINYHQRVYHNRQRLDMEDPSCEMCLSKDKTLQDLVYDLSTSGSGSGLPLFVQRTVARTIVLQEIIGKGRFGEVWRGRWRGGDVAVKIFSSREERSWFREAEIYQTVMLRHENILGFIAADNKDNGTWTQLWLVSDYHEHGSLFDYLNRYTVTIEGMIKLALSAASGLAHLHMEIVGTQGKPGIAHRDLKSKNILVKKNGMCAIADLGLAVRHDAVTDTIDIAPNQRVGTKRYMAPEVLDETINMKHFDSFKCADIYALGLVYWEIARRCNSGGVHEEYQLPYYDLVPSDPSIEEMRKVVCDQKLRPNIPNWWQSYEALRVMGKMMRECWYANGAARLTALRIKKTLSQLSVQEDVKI

[6] = target: Calcium/calmodulin-dependent protein kinase type II subunit delta (Homo sapiens) (UniProt Q13557); assay: Selectivity interaction (Kinase panel (Z-LYTE Assay)) EUB0001632a CAMK2D; conditions: at 10 µM
Sequence of Calcium/calmodulin-dependent protein kinase type II subunit delta (Homo sapiens) (Q13557 whole entry): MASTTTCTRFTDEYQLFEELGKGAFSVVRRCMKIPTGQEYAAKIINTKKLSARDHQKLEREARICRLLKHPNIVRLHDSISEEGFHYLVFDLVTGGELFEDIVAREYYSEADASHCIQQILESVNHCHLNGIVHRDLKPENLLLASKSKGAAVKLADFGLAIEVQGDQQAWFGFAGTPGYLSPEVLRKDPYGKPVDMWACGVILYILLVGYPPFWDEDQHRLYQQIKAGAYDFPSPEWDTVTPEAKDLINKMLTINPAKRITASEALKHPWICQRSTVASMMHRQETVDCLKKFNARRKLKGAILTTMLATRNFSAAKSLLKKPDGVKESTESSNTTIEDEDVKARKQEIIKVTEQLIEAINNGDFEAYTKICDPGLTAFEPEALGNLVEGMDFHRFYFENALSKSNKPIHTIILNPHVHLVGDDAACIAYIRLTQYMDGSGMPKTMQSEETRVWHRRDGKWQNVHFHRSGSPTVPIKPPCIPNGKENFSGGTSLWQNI

Sequence of Casein kinase I isoform gamma-2 (Homo sapiens) (P78368 whole entry, looked up, canonical isoform): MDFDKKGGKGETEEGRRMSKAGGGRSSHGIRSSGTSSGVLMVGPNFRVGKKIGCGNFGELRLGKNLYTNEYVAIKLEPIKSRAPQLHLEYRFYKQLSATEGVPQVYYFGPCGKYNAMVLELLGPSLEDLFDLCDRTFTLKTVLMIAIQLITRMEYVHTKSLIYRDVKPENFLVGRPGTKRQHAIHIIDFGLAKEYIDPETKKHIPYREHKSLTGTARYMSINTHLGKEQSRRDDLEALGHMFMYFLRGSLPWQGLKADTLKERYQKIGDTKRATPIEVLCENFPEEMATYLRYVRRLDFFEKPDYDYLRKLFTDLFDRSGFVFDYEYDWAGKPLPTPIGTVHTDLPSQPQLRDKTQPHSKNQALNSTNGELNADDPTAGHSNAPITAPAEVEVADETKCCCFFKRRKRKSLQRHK
Sequence of Microtubule-associated serine/threonine-protein kinase 3 (Homo sapiens) (O60307 whole entry): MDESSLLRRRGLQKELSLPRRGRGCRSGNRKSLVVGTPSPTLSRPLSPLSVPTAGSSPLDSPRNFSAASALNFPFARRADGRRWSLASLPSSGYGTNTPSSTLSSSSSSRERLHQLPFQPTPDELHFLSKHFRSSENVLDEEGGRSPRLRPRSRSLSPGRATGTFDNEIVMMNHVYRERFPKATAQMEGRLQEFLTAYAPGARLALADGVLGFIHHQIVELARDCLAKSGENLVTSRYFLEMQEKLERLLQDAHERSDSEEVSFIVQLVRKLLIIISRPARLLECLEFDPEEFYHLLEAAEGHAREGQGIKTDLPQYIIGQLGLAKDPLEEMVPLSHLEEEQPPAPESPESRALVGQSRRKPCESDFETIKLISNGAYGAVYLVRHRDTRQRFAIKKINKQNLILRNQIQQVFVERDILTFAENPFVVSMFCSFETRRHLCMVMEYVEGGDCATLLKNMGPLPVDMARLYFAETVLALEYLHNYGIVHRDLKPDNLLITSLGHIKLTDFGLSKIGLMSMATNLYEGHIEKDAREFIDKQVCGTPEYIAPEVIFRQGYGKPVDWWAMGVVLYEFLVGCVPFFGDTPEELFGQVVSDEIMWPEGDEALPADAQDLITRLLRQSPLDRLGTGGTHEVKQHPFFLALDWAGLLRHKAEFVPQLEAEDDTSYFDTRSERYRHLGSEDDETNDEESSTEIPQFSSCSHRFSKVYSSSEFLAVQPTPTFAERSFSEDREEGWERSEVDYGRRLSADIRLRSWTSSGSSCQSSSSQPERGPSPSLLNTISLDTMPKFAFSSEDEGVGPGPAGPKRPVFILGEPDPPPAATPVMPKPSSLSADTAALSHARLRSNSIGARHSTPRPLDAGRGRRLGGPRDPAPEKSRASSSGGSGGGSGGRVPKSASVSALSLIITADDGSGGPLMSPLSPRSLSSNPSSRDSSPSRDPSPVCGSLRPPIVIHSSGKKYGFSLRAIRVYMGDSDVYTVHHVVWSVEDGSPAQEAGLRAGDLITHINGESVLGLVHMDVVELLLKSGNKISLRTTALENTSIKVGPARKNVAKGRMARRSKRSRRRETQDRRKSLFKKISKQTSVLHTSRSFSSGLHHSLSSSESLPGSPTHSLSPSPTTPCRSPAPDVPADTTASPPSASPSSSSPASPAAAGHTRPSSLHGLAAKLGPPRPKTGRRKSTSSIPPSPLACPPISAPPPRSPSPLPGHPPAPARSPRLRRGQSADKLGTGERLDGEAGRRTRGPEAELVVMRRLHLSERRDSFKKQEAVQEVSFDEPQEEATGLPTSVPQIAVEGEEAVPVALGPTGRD

O=C(NOC[C@H](O)CO)c1ccc(F)c(F)c1Nc1ccc(I)cc1F
% of control [1]: 90%

CC[C@@H]1[C@H](F)C(=O)N[C@@H]1COc1nccc2cc(C(N)=O)c(OC)cc12 [ZIMLOVISERTIB]
% of inhibition [2]: 64.8%

N#Cc1cccc(-c2c[nH]c3ncnc(N4CCOCC4)c23)c1
% of inhibition [3]: 1%

Cc1cc(F)c(C(=O)Nc2cccc(-c3nncn3C(C)C)n2)cc1-n1cnc(C2CC2)c1
% of control [4]: 91%

CNC(=O)Nc1ccc(-c2nc(N3CC4CCC(C3)O4)c3cnn(C4CCC5(CC4)OCCO5)c3n2)cc1
% of inhibition [5]: 3%

Cn1cc(-n2cnc3c(NCc4nc5cc(Cl)c(Cl)cc5[nH]4)nc(N4CCOCC4)nc32)cn1
% of control [6]: -1.23%
